Source: patent publication US20150105252A1, “SUBSTITUTED PYRAZOLES AS HERBICIDES” (E I DU PONT DE NEMOURS AND COMPANY, priority 2013, published 2015)

How the values were obtained:
[1] = test system: corn; experiment: Test A preemergence; type: in vivo, Zea mays; conditions: preemergence
Summary of the method: (§1)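 Scoring was visual, on a scale where 100 means complete control and 0 means no effect, comparing treated with untreated plants around 10 days post-application. Compounds in surfactant-containing non-phytotoxic solvent were sprayed onto soil preemergence or onto one- to two-leaf seedlings (2–10 cm) postemergence.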

[2] = test system: corn; experiment: Test A postemergence; type: in vivo, Zea mays
Summary of the method: as §1

[3] = test system: foxtail, giant; experiment: Test A preemergence; type: in vivo, Setaria faberii; conditions: preemergence
Summary of the method: as §1

[4] = test system: morningglory; experiment: Test A preemergence; type: in vivo, Ipomoea spp.; conditions: preemergence
Summary of the method: as §1

[5] = test system: pigweed; experiment: Test A postemergence; type: in vivo, Amaranthus retroflexus
Summary of the method: as §1

[6] = test system: rice; experiment: Test B flood; type: in vivo, Oryza sativa; conditions: 250 g ai/ha, visual rating on 0 to 100 scale (0 no effect, 100 complete control), 13 to 15 days
Summary of the method: (§2)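 Plants were grown to the 2-leaf stage, then pots were flooded to 3 cm above the soil and compounds were applied directly into the paddy water. Water depth was held for the whole test; after 13 to 15 days in a greenhouse, injury was visually rated against untreated controls (0 = no effect, 100 = complete control).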

[7] = test system: sedge, umbrella; experiment: Test B flood; type: in vivo, Cyperus difformis; conditions: 250 g ai/ha, visual rating on 0 to 100 scale (0 no effect, 100 complete control), 13 to 15 days
Summary of the method: as §2

[8] = test system: ducksalad; experiment: Test B flood; type: in vivo, Heteranthera limosa; conditions: 250 g ai/ha, visual rating on 0 to 100 scale (0 no effect, 100 complete control), 13 to 15 days
Summary of the method: as §2

[9] = test system: barnyardgrass; experiment: Test B flood; type: in vivo, Echinochloa crus-galli; conditions: 250 g ai/ha, visual rating on 0 to 100 scale (0 no effect, 100 complete control), 13 to 15 days
Summary of the method: as §2

[10] = test system: wheat; experiment: Test A postemergence; type: in vivo, Triticum aestivum
Summary of the method: as §1

[11] = test system: foxtail, giant; experiment: Test A postemergence; type: in vivo, Setaria faberii
Summary of the method: as §1

[12] = test system: velvetleaf; experiment: Test A postemergence; type: in vivo, Abutilon theophrasti
Summary of the method: as §1

[13] = test system: barnyardgrass; experiment: Test A preemergence; type: in vivo, Echinochloa crus-galli; conditions: preemergence
Summary of the method: as §1

[14] = test system: crabgrass, large; experiment: Test A preemergence; type: in vivo, Digitaria sanguinalis; conditions: preemergence
Summary of the method: as §1

[15] = test system: wheat; experiment: Test A preemergence; type: in vivo, Triticum aestivum; conditions: preemergence
Summary of the method: as §1

[16] = test system: morningglory; experiment: Test A postemergence; type: in vivo, Ipomoea spp.
Summary of the method: as §1

[17] = test system: crabgrass, large; experiment: Test A postemergence; type: in vivo, Digitaria sanguinalis
Summary of the method: as §1

[18] = test system: barnyardgrass; experiment: Test A postemergence; type: in vivo, Echinochloa crus-galli
Summary of the method: as §1

[19] = test system: velvetleaf; experiment: Test A preemergence; type: in vivo, Abutilon theophrasti; conditions: preemergence
Summary of the method: as §1

[20] = test system: pigweed; experiment: Test A preemergence; type: in vivo, Amaranthus retroflexus; conditions: preemergence
Summary of the method: as §1

[21] = 125 g ai/ha, visual injury, 0 to 100 scale, approx. 10 days
[22] = 500 g ai/ha, visual injury after approx. 10 days, 0 to 100 scale (0 no effect, 100 complete control)
[23] = Postemergence, 500 g ai/ha, visual rating after approx. 10 days, 0 to 100 scale (0 no effect, 100 complete control)
[24] = postemergence, 125 g ai/ha, about 10 days, visual rating on 0 to 100 scale (0 no effect, 100 complete control)

CCc1cc(-c2ccc(Br)cc2)nn1Cc1ccnc(C(F)(F)F)c1 [Compound 112]
80: Foxtail, Giant plant response rating [3, 22]
70: Foxtail, Giant plant response rating [3, 21] | Crabgrass, Large plant response rating [14, 21] | Morningglory plant response rating [16, 23]
20: Plant response rating, Rice [6] | Plant response rating, Barnyardgrass [9] | Foxtail, Giant plant response rating [11, 23] | Velvetleaf plant response rating [12, 24] | Crabgrass, Large plant response rating [17, 23] | Barnyardgrass plant response rating [18, 23]
90: Pigweed plant response rating [5, 23] | Crabgrass, Large plant response rating [14, 22]
30: Corn plant response rating [2, 23] | Pigweed plant response rating [5, 24]
40: Wheat plant response rating [10, 23] | Velvetleaf plant response rating [12, 23] | Morningglory plant response rating [16, 24]
50: Pigweed plant response rating [20, 22]
0: Corn plant response rating [1, 21] | Corn plant response rating [1, 22] | Corn plant response rating [2, 24] | Morningglory plant response rating [4, 21] | Morningglory plant response rating [4, 22] | Plant response rating, Sedge, Umbrella [7] | Plant response rating, Ducksalad [8] | Barnyardgrass plant response rating [13, 21] | Wheat plant response rating [15, 21] | Wheat plant response rating [15, 22] | Barnyardgrass plant response rating [18, 24] | Velvetleaf plant response rating [19, 21] | Pigweed plant response rating [20, 21]
10: Wheat plant response rating [10, 24] | Foxtail, Giant plant response rating [11, 24] | Barnyardgrass plant response rating [13, 22] | Crabgrass, Large plant response rating [17, 24] | Velvetleaf plant response rating [19, 22]

CCc1cc(-c2ccc(C(F)(F)F)cc2)nn1Cc1nc(C(F)(F)F)nn1C [Compound 115]
60: Velvetleaf plant response rating [12, 24] | Barnyardgrass plant response rating [18, 23]
80: Plant response rating, Sedge, Umbrella [7] | Foxtail, Giant plant response rating [11, 23] | Barnyardgrass plant response rating [13, 22] | Morningglory plant response rating [16, 23]
30: Foxtail, Giant plant response rating [11, 24] | Morningglory plant response rating [16, 24] | Barnyardgrass plant response rating [18, 24]
90: Foxtail, Giant plant response rating [3, 21] | Foxtail, Giant plant response rating [3, 22] | Pigweed plant response rating [5, 24] | Crabgrass, Large plant response rating [14, 21] | Crabgrass, Large plant response rating [17, 23] | Pigweed plant response rating [20, 21]
20: Corn plant response rating [1, 22] | Corn plant response rating [2, 24] | Plant response rating, Rice [6] | Barnyardgrass plant response rating [13, 21] | Wheat plant response rating [15, 22] | Velvetleaf plant response rating [19, 21] | Velvetleaf plant response rating [19, 22]
50: Crabgrass, Large plant response rating [17, 24]
0: Corn plant response rating [1, 21] | Morningglory plant response rating [4, 21] | Plant response rating, Ducksalad [8] | Plant response rating, Barnyardgrass [9] | Wheat plant response rating [10, 24] | Wheat plant response rating [15, 21]
100: Pigweed plant response rating [5, 23] | Velvetleaf plant response rating [12, 23] | Crabgrass, Large plant response rating [14, 22] | Pigweed plant response rating [20, 22]
40: Corn plant response rating [2, 23] | Morningglory plant response rating [4, 22] | Wheat plant response rating [10, 23]
